Laboratory results published in US20240252581A1, “COMPOSITIONS AND METHODS FOR TREATING RESPIRATORY DISTRESS” (S.I.S. SHULOV INNOVATIVE SCIENCE LTD., priority 2021, published 2024).
Square brackets hold non-standard residues; d marks the D form. * marks the point of attachment. pGlu = O=C1CC[C@@H](C(=O)O)N1; Octanoyl = CCCCCCCC(=O)*

Assay: Oxygen saturation in mouse model of LPS-inflamed lungs (Rodent Pulse Oximeter)
Assay type: in vivo, Balb/C female mice
Method: Evaluation of the effect of ZEP3Na administration via inhalation on oxygen saturation in a mouse model of inflamed lungs by the lipopolysaccharides (LPS) was performed. Oxygen saturation testing was performed at several time points on mice that have been anesthetized by isoflurane. A sensor was attached to the hind foot of the mice and the percentage of oxygen in the blood was measured using the Rodent Pulse Oximeter instrument (Kent Scientific).
Following LPS intratracheal instillation, a marked reduction in blood oxygen saturation levels was detected. ZEP3Na was then administered by inhalation at two doses 6 h and 14 h after LPS administration and the effect of ZEP3Na on blood oxygen saturation was monitored 0, 2, 6, 12, 24 and 48 hours following ZEP3Na administration. Saturation data was analyzed by ANOVA followed by Tukey-Kramer test. Significance level was defined as ∝=0.05.

pGlu-Asn-Trp-Lys(Octanoyl)-OH ([pGlu]NWK(Octanoyl)-OH; SMILES CCCCCCCC(=O)NCCCC[C@H](NC(=O)[C@H](Cc1c[nH]c2ccccc12)NC(=O)[C@H](CC(N)=O)NC(=O)[C@@H]1CCC(=O)N1)C(=O)O) [ZEP3]
time after administration over which increase in oxygen saturation was exerted (acute inflamed lung model): at least 48 hours | time following treatment at which increase in oxygen saturation is statistically significant (administration by inhalation, LPS model): 12 h
